The record followed here is PubChem BioAssay AID652002 (Sanford-Burnham Center for Chemical Genomics, 2013).

Experiment [1] in a line: TRAIL sensitizers in caspase-8 expressing neuroblastoma cells, dose response, NB7 cells plus caspase-8, luminescence, panel (AID 652002). Particulars: NB7 neuroblastoma +caspase-8, no TRAIL, compound-alone cytotoxicity counter-screen, luminescence viability, NB7+Caspase-8. Background: The purpose of a counterscreen is to sort out artefacts and off-target activity.
A further experiment addresses NB7+Caspase-8. Described as above. Particulars: NB7 neuroblastoma +caspase-8, TRAIL sensitization, luminescence viability, with TRAIL.
Experiment [2] deals with Tumor necrosis factor receptor superfamily member 10B (Homo sapiens) (UniProt O14763). Described as above. The following applies: NB7 neuroblastoma +caspase-8, TRAIL sensitization, luminescence viability; NB7+Caspase-8; with TRAIL, mean of runs.
The mark [3] stands for this setting: run 1, single replicate panel EC50.
The mark [4] stands for this setting: run 2, single replicate panel EC50.

Activity calls are given as the source filed them. How the calls were made is not given here. Where only a bound is given, the exact number is not on record here.

Sequence of Tumor necrosis factor receptor superfamily member 10B (Homo sapiens) (O14763 whole entry, looked up): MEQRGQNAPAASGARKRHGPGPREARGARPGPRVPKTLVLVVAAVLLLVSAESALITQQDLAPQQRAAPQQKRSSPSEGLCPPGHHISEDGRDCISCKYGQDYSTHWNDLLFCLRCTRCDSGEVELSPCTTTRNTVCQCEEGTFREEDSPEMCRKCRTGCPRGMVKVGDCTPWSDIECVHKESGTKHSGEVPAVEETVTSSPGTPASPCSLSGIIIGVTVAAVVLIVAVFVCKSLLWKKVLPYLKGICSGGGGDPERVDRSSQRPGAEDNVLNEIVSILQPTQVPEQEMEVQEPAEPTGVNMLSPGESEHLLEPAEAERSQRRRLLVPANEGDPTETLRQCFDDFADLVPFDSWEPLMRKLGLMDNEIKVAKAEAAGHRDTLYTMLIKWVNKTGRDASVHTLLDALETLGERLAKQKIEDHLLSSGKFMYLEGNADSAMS

One may read the EC50 as the concentration that produces a half-maximal response. Regarding `O=C(Nc1ccc2ccccc2c1)c1ccc(Cl)cc1`, the EC50 in experiment [1] (mean of runs) was > 12.5 µM (inactive); in experiment [1] (setting [3]), greater than 12.5 µM; in experiment [1] (setting [4]), greater than 12.5 µM; at NB7+Caspase-8 (setting [3]), greater than 12.5 µM; at NB7+Caspase-8 (setting [4]), greater than 12.5 µM; in experiment [2], > 12.5 µM (inactive).
For `COc1ccccc1/C=C/C=N/n1c(-c2cc(-c3ccccc3)n[nH]2)n[nH]c1=S`, the EC50 in experiment [1] (mean of runs) is > 12.5 µM (inactive); in experiment [1] (setting [3]) it was greater than 12.5 µM; in experiment [1] (setting [4]) it was greater than 12.5 µM; at NB7+Caspase-8 (setting [3]) it was greater than 12.5 µM; on NB7+Caspase-8 (setting [4]), greater than 12.5 µM; in experiment [2], > 12.5 µM (inactive).
Regarding `O=C(NNC(=O)c1cc(OCC(F)(F)F)ccc1OCC(F)(F)F)c1ccc(Cl)c(Cl)c1`, the EC50 is > 12.5 µM (inactive) in experiment [1] (mean of runs); greater than 12.5 µM in experiment [1] (setting [3]); greater than 12.5 µM in experiment [1] (setting [4]); greater than 12.5 µM on NB7+Caspase-8 (setting [3]); greater than 12.5 µM at NB7+Caspase-8 (setting [4]); > 12.5 µM (inactive) in experiment [2].
On to `CC(C)C(=O)Nc1ccc(NC(=O)c2ccccn2)cn1`, for which the EC50 entry in experiment [1] (mean of runs) and in experiment [2] was “inactive” throughout. In addition, the EC50 in experiment [1] (setting [3]) was greater than 12.5 µM; in experiment [1] (setting [4]), 11.6 µM; at NB7+Caspase-8 (setting [3]), greater than 12.5 µM; on NB7+Caspase-8 (setting [4]) it was 9.78 µM.
On to `Cc1ccc(-n2nnc(-c3cccnc3Cl)n2)cc1`, for which the EC50 in experiment [1] (mean of runs) is > 12.5 µM (inactive); in experiment [1] (setting [3]), greater than 12.5 µM; in experiment [1] (setting [4]), greater than 12.5 µM; on NB7+Caspase-8 (setting [3]) it was greater than 12.5 µM; on NB7+Caspase-8 (setting [4]), greater than 12.5 µM; in experiment [2] it was > 12.5 µM (inactive).
For `C/C(=N\NC(=O)c1csc(C)c1C)c1ccco1`, the EC50 is > 12.5 µM (inactive) in experiment [1] (mean of runs); greater than 12.5 µM in experiment [1] (setting [3]); greater than 12.5 µM in experiment [1] (setting [4]); greater than 12.5 µM at NB7+Caspase-8 (setting [3]); greater than 12.5 µM at NB7+Caspase-8 (setting [4]); > 12.5 µM (inactive) in experiment [2].
For `COc1ccc(-c2nc(-c3ccc(NC(=O)c4ccncc4)cc3)no2)cc1OC`, the EC50 in experiment [1] (mean of runs) was > 12.5 µM (inactive); in experiment [1] (setting [3]), greater than 12.5 µM; in experiment [1] (setting [4]), greater than 12.5 µM; at NB7+Caspase-8 (setting [3]) it was greater than 12.5 µM; at NB7+Caspase-8 (setting [4]), greater than 12.5 µM; in experiment [2], > 12.5 µM (inactive).
For the compound `CCOC(=O)[C@]12Cc3cc4ccccc4cc3[C@H]1N(Cc1ccccc1)C(=O)c1cc(OC)ccc12`, the EC50 in experiment [1] (mean of runs) was > 12.5 µM (inactive); in experiment [1] (setting [3]) it was greater than 12.5 µM; in experiment [1] (setting [4]) it was greater than 12.5 µM; at NB7+Caspase-8 (setting [3]), greater than 12.5 µM; at NB7+Caspase-8 (setting [4]), greater than 12.5 µM; in experiment [2] it was > 12.5 µM (inactive).
Turning to `O=C(Nc1ccc2c(c1)OCCO2)NC1CCCCC1`, the EC50 in experiment [1] (mean of runs) was > 12.5 µM (inactive); in experiment [1] (setting [3]) it was greater than 12.5 µM; in experiment [1] (setting [4]), greater than 12.5 µM; on NB7+Caspase-8 (setting [3]), greater than 12.5 µM; at NB7+Caspase-8 (setting [4]), 12 µM. The EC50 entry in experiment [2] was “inactive”.
Regarding `CN(C)S(=O)(=O)c1ccc(C(=O)Nc2nnc(SCC(=O)NCC3CCCO3)s2)cc1` (centres undefined), the EC50 in experiment [1] (mean of runs) was > 12.5 µM (inactive); in experiment [1] (setting [3]), greater than 12.5 µM; in experiment [1] (setting [4]), greater than 12.5 µM; on NB7+Caspase-8 (setting [3]), greater than 12.5 µM; at NB7+Caspase-8 (setting [4]), greater than 12.5 µM; in experiment [2] it was > 12.5 µM (inactive).
With `CCCCc1nc(NCCN)c(C#N)c2c1CSC(C)(C)C2`, the EC50 in experiment [1] (mean of runs) was > 12.5 µM (inactive); in experiment [1] (setting [3]), greater than 12.5 µM; in experiment [1] (setting [4]), greater than 12.5 µM; at NB7+Caspase-8 (setting [3]), greater than 12.5 µM; on NB7+Caspase-8 (setting [4]) it was greater than 12.5 µM; in experiment [2] it was > 12.5 µM (inactive).
For `O=C(Oc1c(CN2CCOCC2)cc(Cl)c2cccnc12)c1cccs1`, the EC50 in experiment [1] (mean of runs) was > 12.5 µM (inactive); in experiment [1] (setting [3]), greater than 12.5 µM; in experiment [1] (setting [4]), greater than 12.5 µM; on NB7+Caspase-8 (setting [3]) it was greater than 12.5 µM; on NB7+Caspase-8 (setting [4]) it was 6.75 µM. For the same compound, the EC50 result in experiment [2] is “inactive”.
Regarding `COc1cc(NC(=O)c2[nH]cnc2C(N)=O)cc(C(=O)Nc2cccc(C(F)(F)F)c2)c1`, the EC50 result in experiment [1] (mean of runs) and in experiment [2] was “inactive” in each case. Also, the EC50 is greater than 12.5 µM in experiment [1] (setting [3]), 10.4 µM in experiment [1] (setting [4]), greater than 12.5 µM at NB7+Caspase-8 (setting [3]) and 8.91 µM at NB7+Caspase-8 (setting [4]).
With `c1ccc(Nc2nnc(-c3cccnc3)s2)cc1`, the EC50 in experiment [1] (mean of runs) was > 12.5 µM (inactive); in experiment [1] (setting [3]), greater than 12.5 µM; in experiment [1] (setting [4]) it was greater than 12.5 µM; at NB7+Caspase-8 (setting [3]), greater than 12.5 µM; at NB7+Caspase-8 (setting [4]), 5.66 µM. Also, in experiment [2], the EC50 entry is “inactive”.
